Where a SMILES comes first, the peptide text is derived from it. Bridges are numbered along the chain shown (N, C = ends). [ ]: non-standard residue; d: D form. The star is where a group is joined. ξ: configuration not given here. Phe(4-COOH) = N[C@@H](Cc1ccc(C(=O)O)cc1)C(=O)O; Bip = N[C@@H](Cc1ccc(-c2ccccc2)cc1)C(=O)O; Phe(3-Cl) = N[C@@H](Cc1cccc(Cl)c1)C(=O)O; Phe(3-Me) = Cc1cccc(C[C@H](N)C(=O)O)c1; Val(3-OH) = CC(C)(O)[C@H](N)C(=O)O; 4Pal = N[C@@H](Cc1ccncc1)C(=O)O; Cha = N[C@@H](CC1CCCCC1)C(=O)O; Cit = NC(=O)NCCC[C@H](N)C(=O)O; Thr(3ξ) = CC(O)[C@H](N)C(=O)O; Carboxymethyl = O=C(O)C*; Nle = CCCC[C@H](N)C(=O)O; Orn = NCCC[C@H](N)C(=O)O; Dab = NCC[C@H](N)C(=O)O; Dap = NC[C@H](N)C(=O)O
Target: T1, human PD-1 / PD-L1-Ig binding on Jurkat cell line over-expressing human PD-1 (Jurkat-PD-1) (Homo sapiens, UniProt Q15116)
T1 construct: expressed in transfected cells; host or cells: Jurkat
Assay: Jurkat-PD-1 Cell Binding High-Content Screening Assay (CBA)
Format: cell-based
Conditions: Jurkat-PD-1 cells, PE-labeled PD-L1-Ig 20 nM final; read-out: Jurkat HPD1_PDL1 IC50
In short: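 Binding of fluorescent PD-L1-Ig (phycoerythrin linked via the Ig tag, 20 nM final) to PD-1-overexpressing Jurkat cells was imaged after a 2 h, 37° C compound pretreatment and 1 hour ligand incubation.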

T1 sequence (Q15116 25-288): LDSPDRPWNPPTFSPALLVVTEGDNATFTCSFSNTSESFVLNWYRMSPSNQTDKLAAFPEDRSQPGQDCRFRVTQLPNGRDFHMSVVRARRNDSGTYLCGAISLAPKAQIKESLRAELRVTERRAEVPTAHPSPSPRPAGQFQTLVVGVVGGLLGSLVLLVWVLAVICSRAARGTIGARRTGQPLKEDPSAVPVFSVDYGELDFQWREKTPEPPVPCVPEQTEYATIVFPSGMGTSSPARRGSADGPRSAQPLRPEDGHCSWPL

Structure (SMILES)	IC50 [nM]
CC(C)C[C@H]1NC(=O)[C@H](CCCN)NC(=O)[C@H](CCCN)NC(=O)[C@H](Cc2ccc(-c3ccccc3)cc2)NC(=O)[C@H](C(C)C)NC(=O)[C@H](Cc2c[nH]c3ccccc23)NC(=O)[C@H](CC(=O)O)NC(=O)[C@H](Cc2ccncc2)NC(=O)[C@H](CN)NC(=O)CSC[C@@H](C(=O)N[C@@H](C)C(N)=O)NC(=O)[C@H]([C@@H](C)O)NC(=O)[C@H](C(C)C)NC(=O)[C@H](CC2CCCCC2)NC(=O)[C@H](CCN)NC1=O [Compound 1386] ({CH2CO}-[Dap][4Pal]DWV[Bip][Orn][Orn][dL][Dab][Cha]VTCA-NH2; thioether N-14)	10.8
Cc1cccc(C[C@@H]2NC(=O)[C@H](CC(=O)O)NC(=O)[C@H](Cc3ccncc3)NC(=O)[C@H](CN)NC(=O)CSC[C@@H](C(=O)NCC(N)=O)NC(=O)[C@H](CO)NC(=O)[C@H](C(C)C)NC(=O)[C@H](CC(C)C)NC(=O)[C@H](CCN)NC(=O)[C@@H](CC(C)C)NC(=O)[C@H](CCCN)NC(=O)[C@H](C(C)C)NC(=O)[C@H](Cc3ccc(-c4ccccc4)cc3)NC(=O)[C@H](CC(C)C)NC2=O)c1 [Compound 1261] ({CH2CO}-[Dap][4Pal]D[Phe(3-Me)]L[Bip]V[Orn][dL][Dab]LVSCG-NH2; thioether N-14)	13.1
Cc1cccc(C[C@@H]2NC(=O)[C@H](CC(=O)O)NC(=O)[C@H](Cc3ccc(C(=O)O)cc3)NC(=O)[C@H](Cc3ccncc3)NC(=O)CSC[C@@H](C(=O)N[C@@H](C)C(N)=O)NC(=O)[C@H]([C@@H](C)O)NC(=O)[C@H](C(C)C)NC(=O)[C@H](CC3CCCCC3)NC(=O)[C@H](CCN)NC(=O)[C@@H](Cc3ccccc3)NC(=O)[C@H](CCCN)NC(=O)[C@H](CCC(=O)O)NC(=O)[C@H](Cc3ccc(-c4ccccc4)cc3)NC(=O)[C@H](C(C)C)NC2=O)c1 [Compound 1428] ({CH2CO}-[4Pal][Phe(4-COOH)]D[Phe(3-Me)]V[Bip]E[Orn][dF][Dab][Cha]VTCA-NH2; thioether N-14)	18.4
CC(C)C[C@H]1NC(=O)[C@H](CCCN)NC(=O)[C@H](C(C)C)NC(=O)[C@H](Cc2ccc(-c3ccccc3)cc2)NC(=O)[C@H](C(C)C)NC(=O)[C@H](Cc2c[nH]c3ccccc23)NC(=O)[C@H](CC(=O)O)NC(=O)[C@H](Cc2ccc(OCC(=O)O)cc2)NC(=O)[C@H](C(C)O)NC(=O)CSC[C@@H](C(N)=O)NC(=O)[C@H](C(C)O)NC(=O)[C@H](C(C)C)NC(=O)[C@H](CC2CCCCC2)NC(=O)[C@H](CCN)NC1=O (stereo partly drawn) [Compound 2599] ({CH2CO}-[Thr(3ξ)]Y(Carboxymethyl)DWV[Bip]V[Orn][dL][Dab][Cha]V[Thr(3ξ)]C-NH2; thioether N-14)	17.8

The remaining lines, values ahead:

IC50 [nM]	Structure (SMILES)
9.1	CC[C@H](C)[C@@H]1NC(=O)[C@H](Cc2ccc(-c3ccccc3)cc2)NC(=O)[C@H](C(C)C)NC(=O)[C@H](Cc2c[nH]c3ccccc23)NC(=O)[C@H](CC(=O)O)NC(=O)[C@H](Cc2ccc(C(=O)O)cc2)NC(=O)[C@H](Cc2ccc(OCC(=O)O)cc2)NC(=O)CSC[C@@H](C(=O)N[C@@H](C)C(N)=O)NC(=O)[C@H]([C@@H](C)O)NC(=O)[C@H](C(C)C)NC(=O)[C@H](Cc2ccccc2)NC(=O)[C@H](CCN)NC(=O)[C@@H](CC(C)C)NC(=O)[C@H](CCCN)NC1=O [Compound 1659] ({CH2CO}-Y(Carboxymethyl)[Phe(4-COOH)]DWV[Bip]I[Orn][dL][Dab]FVTCA-NH2; thioether N-14)
0.3	CCCC[C@@H]1NC(=O)CSC[C@@H](C(=O)N[C@@H](CCN)C(N)=O)NC(=O)[C@H](CCC(=O)O)NC(=O)[C@H](C(C)(C)O)NC(=O)[C@H](CC2CCCCC2)NC(=O)[C@H](CCN)NC(=O)[C@@H](CC(C)C)NC(=O)[C@H](CCCN)NC(=O)[C@H](Cc2ccc(C(=O)O)cc2)NC(=O)[C@H](Cc2ccc(-c3ccccc3)cc2)NC(=O)[C@H](Cc2ccc(C(=O)O)cc2)NC(=O)[C@H](Cc2cccc(C)c2)NC(=O)[C@H](CC(=O)O)NC(=O)[C@H](Cc2ccc(OCC(=O)O)cc2)NC1=O [Example 2714] ({CH2CO}-[Nle]Y(Carboxymethyl)D[Phe(3-Me)][Phe(4-COOH)][Bip][Phe(4-COOH)][Orn][dL][Dab][Cha][Val(3-OH)]EC[Dab]-NH2; thioether N-14)
9.5	CCCC[C@@H]1NC(=O)[C@H](CCN)NC(=O)[C@@H](CC(C)C)NC(=O)[C@H](CCCN)NC(=O)[C@H](C(C)C)NC(=O)[C@H](Cc2ccc(-c3ccccc3)cc2)NC(=O)[C@H](CC(C)C)NC(=O)[C@H](Cc2c[nH]c3ccccc23)NC(=O)[C@H](CC(=O)O)NC(=O)[C@H](Cc2ccncc2)NC(=O)[C@H](Cc2ccc(OCC(=O)O)cc2)NC(=O)CSC[C@@H](C(=O)NCC(N)=O)NC(=O)[C@H](CO)NC(=O)[C@H](C(C)C)NC1=O [Compound 1411] ({CH2CO}-Y(Carboxymethyl)[4Pal]DWL[Bip]V[Orn][dL][Dab][Nle]VSCG-NH2; thioether N-14)
7.6	Cc1cccc(C[C@@H]2NC(=O)[C@H](CC(=O)O)NC(=O)[C@H](Cc3ccc(OCC(=O)O)cc3)NC(=O)[C@H](CCN)NC(=O)CSC[C@@H](C(=O)N[C@@H](CCN)C(N)=O)NC(=O)[C@H](CO)NC(=O)[C@H](C(C)(C)O)NC(=O)[C@H](CC3CCCCC3)NC(=O)[C@H](Cc3cnc[nH]3)NC(=O)[C@@H](CC(C)C)NC(=O)[C@H](CCCN)NC(=O)[C@H](Cc3ccc(OCC(=O)O)cc3)NC(=O)[C@H](Cc3ccc(-c4ccccc4)cc3)NC(=O)[C@H](Cc3ccc(OCC(=O)O)cc3)NC2=O)c1 [Compound 2653] ({CH2CO}-[Dab]Y(Carboxymethyl)D[Phe(3-Me)]Y(Carboxymethyl)[Bip]Y(Carboxymethyl)[Orn][dL]H[Cha][Val(3-OH)]SC[Dab]-NH2; thioether N-14)
10.6	CC(C)C[C@H]1NC(=O)[C@H](CCCN)NC(=O)[C@H](CCC(=O)O)NC(=O)[C@H](Cc2ccc(-c3ccccc3)cc2)NC(=O)[C@H](C(C)C)NC(=O)[C@H](Cc2cccc(Cl)c2)NC(=O)[C@H](CC(=O)O)NC(=O)[C@H](Cc2ccc(OCC(=O)O)cc2)NC(=O)[C@H](Cc2ccccc2)NC(=O)CSC[C@@H](C(=O)N[C@@H](C)C(N)=O)NC(=O)[C@H]([C@@H](C)O)NC(=O)[C@H](C(C)C)NC(=O)[C@H](CC2CCCCC2)NC(=O)[C@H](CCN)NC1=O [Compound 1488] ({CH2CO}-FY(Carboxymethyl)D[Phe(3-Cl)]V[Bip]E[Orn][dL][Dab][Cha]VTCA-NH2; thioether N-14)
10	Cc1cccc(C[C@@H]2NC(=O)[C@H](CC(=O)O)NC(=O)[C@H](Cc3ccc(OCC(=O)O)cc3)NC(=O)[C@H](Cc3ccccc3)NC(=O)CSC[C@@H](C(=O)N[C@@H](C)C(N)=O)NC(=O)[C@H](C(C)O)NC(=O)[C@H](C(C)C)NC(=O)[C@H](CC3CCCCC3)NC(=O)[C@H](CN)NC(=O)[C@@H](CC(C)C)NC(=O)[C@H](CCCN)NC(=O)[C@H](CCCNC(N)=O)NC(=O)[C@H](Cc3ccc(-c4ccccc4)cc3)NC(=O)[C@H](C(C)C)NC2=O)c1 (stereo partly drawn) [Compound 2500] ({CH2CO}-FY(Carboxymethyl)D[Phe(3-Me)]V[Bip][Cit][Orn][dL][Dap][Cha]V[Thr(3ξ)]CA-NH2; thioether N-14)
8.6	CC[C@H](C)[C@@H]1NC(=O)[C@H](Cc2ccc(-c3ccccc3)cc2)NC(=O)[C@H](C(C)C)NC(=O)[C@H](Cc2c[nH]c3ccccc23)NC(=O)[C@H](CC(=O)O)NC(=O)[C@H](Cc2ccc(O)cc2)NC(=O)[C@H](CN)NC(=O)CSC[C@@H](C(=O)N[C@@H](C)C(N)=O)NC(=O)[C@H]([C@@H](C)O)NC(=O)[C@H](C(C)C)NC(=O)[C@H](CC(C)C)NC(=O)[C@H](CCN)NC(=O)[C@@H](CC(C)C)NC(=O)[C@H](CCCN)NC1=O [Compound 1056] ({CH2CO}-[Dap]YDWV[Bip]I[Orn][dL][Dab]LVTCA-NH2; thioether N-14)

Source: US20250163104A1, “MACROCYCLIC IMMUNOMODULATORS” (priority 2021, published 2025)
